# Source: patent EP4610269A1, “UROKINASE PLASMINOGEN ACTIVATOR SURFACE RECEPTOR (UPAR) LIGANDS FOR DIAGNOSTIC OR THERAPEUTIC USE” (3B Pharmaceuticals GmbH, priority 2024, dated 2025)
# pIC50: −log10 of the molar value. Like-named read-outs stand apart in the source and are kept apart here. Where a SMILES comes first, the peptide text is derived from it. Bridges are numbered along the chain shown (N, C = ends). [ ]: non-standard residue; d: D form. The star is where a group is joined. Acetyl(4-DOTA-piperazinyl) = O=C(O)CN1CCN(CC(=O)O)CCN(CC(=O)N2CCN(CC(=O)*)CC2)CCN(CC(=O)O)CC1; DOTA = O=C(O)CN1CCN(CC(=O)O)CCN(CC(=O)*)CCN(CC(=O)O)CC1; Phe(4-NO2) = N[C@@H](Cc1ccc([N+](=O)[O-])cc1)C(=O)O; Phe(4-SO3H) = N[C@@H](Cc1ccc(S(=O)(=O)O)cc1)C(=O)O; Pro(cis-4-F) = O=C(O)[C@@H]1C[C@H](F)CN1; Dopa = N[C@@H](Cc1ccc(O)c(O)c1)C(=O)O; Ser(ΨH,HPro) = O=C(O)[C@@H]1COCN1; Hyp = O=C(O)[C@@H]1C[C@@H](O)CN1; Pentanoyl(4-Me) = CC(C)CCC(=O)*; Cit = NC(=O)NCCC[C@H](N)C(=O)O; NMeL = CN[C@@H](CC(C)C)C(=O)O; Butoxycarbonyl = CCCCOC(=O)*; Orn = NCCC[C@H](N)C(=O)O; Nva = CCC[C@H](N)C(=O)O; Pentanoyl = CCCCC(=O)*; X2 = CCCOC(=O)*
# How the values were obtained:
# [1] = biological target: T1, uPAR-expressing HEC-265 human endometrial adenocarcinoma cells (Homo sapiens, UniProt Q03405); assay: Competitive FACS binding assay; details: pIC50 category of FACS binding
# T1 construct: Cell surface uPAR-expressing HEC-265 human endometrial adenocarcinoma cells; host or cells: HEC-265
# T1 sequence (Q03405 23-335): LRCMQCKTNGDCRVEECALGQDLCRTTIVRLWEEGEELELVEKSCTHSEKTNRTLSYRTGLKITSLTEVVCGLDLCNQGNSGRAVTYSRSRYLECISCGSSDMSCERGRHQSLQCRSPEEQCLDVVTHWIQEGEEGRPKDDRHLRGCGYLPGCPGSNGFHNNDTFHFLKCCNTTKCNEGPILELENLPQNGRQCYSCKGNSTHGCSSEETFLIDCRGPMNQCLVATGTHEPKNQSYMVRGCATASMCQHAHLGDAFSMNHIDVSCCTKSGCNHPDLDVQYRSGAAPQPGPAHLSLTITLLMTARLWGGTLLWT
# In short: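 HEC-265 cells incubated 1 h at 4 °C with 10 nM biotinylated uPAR peptide tracer plus increasing test compound, then stained with APC-streptavidin on ice. Median APC fluorescence by flow cytometry; 4PL fit gives pIC50.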
# human uPAR (uPAR-Fc) = biological target: T2, human uPAR (uPAR-Fc) (Homo sapiens, UniProt Q03405); assay: Surface plasmon resonance (SPR) assay, single cycle kinetics; format: binding; details: pKD category for uPAR SPR activity assay, uPAR-Fc on Protein A-Chip, 25°C, read-out: pKD CAT (converted)
# T2 construct: comprising amino acids Leu23-Arg303 according to UniProt entry Q03405.1; purchased R&D Systems 10378-UK-100
# T2 sequence (Q03405 23-303): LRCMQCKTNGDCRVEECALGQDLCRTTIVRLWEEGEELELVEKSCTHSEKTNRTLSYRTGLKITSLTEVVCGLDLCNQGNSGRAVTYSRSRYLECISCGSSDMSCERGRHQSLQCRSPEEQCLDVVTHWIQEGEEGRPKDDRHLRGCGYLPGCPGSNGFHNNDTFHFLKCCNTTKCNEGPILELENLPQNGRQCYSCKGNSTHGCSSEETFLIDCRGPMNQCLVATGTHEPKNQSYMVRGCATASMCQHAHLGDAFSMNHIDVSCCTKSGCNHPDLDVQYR
# In short: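 uPAR-Fc (Leu23-Arg303 extracellular domains, human IgG1 Fc) captured on Protein A chip to ~2000 RU; single-cycle kinetics at 25°C in HEPES running buffer pH 7.4 with 0.1% DMSO. KD from double-referenced sensorgrams fitted to 1:1 Langmuir model, reported as pKD.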
pIC50 [1],Kd (human uPAR (uPAR-Fc)) [nM],Kd (human uPAR (uPAR-Fc); single cycle kinetics) [nM],SMILES
≥ 8.00,< 1.58,,"CCCCC(=O)N[C@H]1CSSC[C@@H](C(N)=O)NC(=O)[C@H](CCC)NC(=O)[C@H]([C@@H](C)CC)NC(=O)[C@H](CC(=O)O)NC(=O)[C@@H]2CCCN2C(=O)[C@H](Cc2ccccc2)NC(=O)[C@H](Cc2ccc(O)cc2)NC(=O)[C@H](CCC(N)=O)NC(=O)[C@H](CCCNC(=N)N)NC1=O [UPAR-344, Pent-[Cys-Arg-Gln-Tyr-Phe-Pro-Asp-Ile-Nva-Cys]-NH2] (Pentanoyl-CRQYFPDI[Nva]C-NH2; disulfide 1-10)"
7.50 to 7.90,,10 to 100,"CC[C@H](C)[C@@H]1NC(=O)[C@H](CCCCNC(=O)CN2CCN(CC(=O)O)CCN(CC(=O)O)CCN(CC(=O)O)CC2)NC(=O)[C@@H]2CCCN2C(=O)[C@H](Cc2ccccc2)NC(=O)[C@H](Cc2ccc(O)cc2)NC(=O)[C@H](CCC(N)=O)NC(=O)[C@@H](C)NC(=O)[C@@H](NC(=O)CCC(C)C)CSSC[C@@H](C(N)=O)NC(=O)[C@H](CC(C)C)NC1=O [UPAR-414, iHex-[Cys-ala-Gln-Tyr-Phe-Pro-Lys(DOTA)-Ile-Leu-Cys]-NH2] ({Pentanoyl(4-Me)}-C[dA]QYFPK(DOTA)ILC-NH2; disulfide 1-10)"
7.50 to 7.90,1.58 to 10,,"CCCCC(=O)N[C@H]1CSSC[C@@H](C(N)=O)NC(=O)[C@H](CCC)NC(=O)[C@H]([C@@H](C)CC)NC(=O)[C@@H]2C[C@@H](O)CN2C(=O)[C@H](CC(C)C)N(C)C(=O)[C@H](Cc2ccccc2)NC(=O)[C@H](Cc2ccc(O)cc2)NC(=O)[C@H](CCC(N)=O)NC(=O)[C@H](CCCNC(=N)N)NC1=O [UPAR-302, Pent-[Cys-Arg-Gln-Tyr-Phe-Nml-Hyp-Ile-Nva-Cys]-NH2] (Pentanoyl-CRQYF[NMeL][Hyp]I[Nva]C-NH2; disulfide 1-10)"
≥ 8.00,,< 1.58,"CCC[C@@H]1NC(=O)[C@H]([C@@H](C)CC)NC(=O)[C@@H](C)NC(=O)[C@@H]2CCCN2C(=O)[C@H](Cc2ccccc2)NC(=O)[C@H](Cc2ccc(O)cc2)NC(=O)[C@H](CCC(N)=O)NC(=O)[C@H](CCCNC(N)=O)NC(=O)[C@@H](NC(=O)CCC(C)C)CSSC[C@@H](C(N)=O)NC1=O [UPAR-429, iHex-[Cys-Cit-Gln-Tyr-Phe-Pro-ala-Ile-Nva-Cys]-NH2] ({Pentanoyl(4-Me)}-C[Cit]QYFP[dA]I[Nva]C-NH2; disulfide 1-10)"
≥ 8.00,1.58 to 10,,"CC[C@H](C)[C@@H]1NC(=O)[C@@H](C)NC(=O)[C@@H]2COCN2C(=O)[C@H](Cc2ccccc2)NC(=O)[C@H](Cc2ccc(O)cc2)NC(=O)[C@H](CCC(N)=O)NC(=O)[C@H](CCCNC(N)=O)NC(=O)[C@@H](NC(=O)CCC(C)C)CSSC[C@@H](C(N)=O)NC(=O)[C@H](CC(C)C)NC1=O [UPAR-321, iHex-[Cys-Cit-Gln-Tyr-Phe-Oxa-ala-Ile-Leu-Cys]-NH2] ({Pentanoyl(4-Me)}-C[Cit]QYF[Ser(ΨH,HPro)][dA]ILC-NH2; disulfide 1-10)"
7.50 to 7.90,,1.58 to 10,"CC[C@H](C)[C@@H]1NC(=O)[C@H]([C@@H](C)CC)NC(=O)[C@@H](C)NC(=O)[C@@H]2CCCN2C(=O)[C@H](Cc2ccccc2)NC(=O)[C@H](Cc2ccc(O)cc2)NC(=O)[C@H](CCC(N)=O)NC(=O)[C@H](CCCNC(N)=O)NC(=O)[C@@H](NC(=O)CCC(C)C)CSSC[C@@H](C(N)=O)NC1=O [UPAR-405, iHex-[Cys-Cit-Gln-Tyr-Phe-Pro-ala-Ile-Ile-Cys]-NH2] ({Pentanoyl(4-Me)}-C[Cit]QYFP[dA]IIC-NH2; disulfide 1-10)"

# The remaining lines, values behind:
SMILES,pIC50 [1],Kd (human uPAR (uPAR-Fc)) [nM],Kd (human uPAR (uPAR-Fc); single cycle kinetics) [nM]
"CCCCOC(=O)N[C@H]1CSSC[C@@H](C(N)=O)NC(=O)[C@H](CCC)NC(=O)[C@H]([C@@H](C)CC)NC(=O)[C@@H]2C[C@@H](O)CN2C(=O)[C@@H]2C[C@H](F)CN2C(=O)[C@H](Cc2ccccc2)NC(=O)[C@H](Cc2ccc(O)c(O)c2)NC(=O)[C@H](CCCCNC(=O)CN2CCN(C(=O)CN3CCN(CC(=O)O)CCN(CC(=O)O)CCN(CC(=O)O)CC3)CC2)NC(=O)[C@H]([C@@H](C)O)NC1=O [UPAR-199, Butoc-[Cys-Thr-Lys(DOTA-PPAc)-Dopa-Phe-4Cfp-Hyp-Ile-Nva-Cys]-NH2] (Butoxycarbonyl-CTK(Acetyl(4-DOTA-piperazinyl))[Dopa]F[Pro(cis-4-F)][Hyp]I[Nva]C-NH2; disulfide 1-10)",≥ 8.00,< 1.58,
"CCCCC(=O)N[C@H]1CSSC[C@@H](C(N)=O)NC(=O)[C@H](CCC)NC(=O)[C@H]([C@@H](C)CC)NC(=O)CNC(=O)[C@@H]2CCCN2C(=O)[C@H](Cc2ccccc2)NC(=O)[C@H](Cc2ccc(O)cc2)NC(=O)[C@H](CCCCNC(=O)CN2CCN(CC(=O)O)CCN(CC(=O)O)CCN(CC(=O)O)CC2)NC(=O)[C@H](CCCNC(N)=O)NC1=O [UPAR-425, Pent-[Cys-Cit-Lys(DOTA)-Tyr-Phe-Pro-Gly-Ile-Nva-Cys]-NH2] (Pentanoyl-C[Cit]K(DOTA)YFPGI[Nva]C-NH2; disulfide 1-10)",≥ 8.00,,< 1.58
"CCCCC(=O)N[C@H]1CSSC[C@@H](C(N)=O)NC(=O)[C@H](CCC)NC(=O)[C@H]([C@@H](C)CC)NC(=O)[C@@H]2C[C@@H](O)CN2C(=O)[C@@H]2C[C@@H](O)CN2C(=O)[C@H](Cc2ccccc2)NC(=O)[C@H](Cc2ccc(O)cc2)NC(=O)[C@H](CCCCNC(=O)CN2CCN(CC(=O)O)CCN(CC(=O)O)CCN(CC(=O)O)CC2)NC(=O)[C@H]([C@@H](C)O)NC1=O [UPAR-135, Pent-[Cys-Thr-Lys(DOTA)-Tyr-Phe-Hyp-Hyp-Ile-Nva-Cys]-NH2] (Pentanoyl-CTK(DOTA)YF[Hyp][Hyp]I[Nva]C-NH2; disulfide 1-10)",≥ 8.00,< 1.58,
"CCC[C@@H]1NC(=O)[C@H]([C@@H](C)CC)NC(=O)[C@@H]2C[C@@H](O)CN2C(=O)[C@@H]2CCCN2C(=O)[C@H](Cc2ccccc2)NC(=O)[C@H](Cc2ccc(O)cc2)NC(=O)[C@H](CCC(N)=O)NC(=O)[C@H](CCCNC(=N)N)NC(=O)[C@@H](NC(=O)[C@H](Cc2ccccc2)NC(=O)CN2CCN(CC(=O)O)CCN(CC(=O)O)CCN(CC(=O)O)CC2)CSSC[C@@H](C(N)=O)NC1=O [UPAR-223, DOTA-Phe-[Cys-Arg-Gln-Tyr-Phe-Pro-Hyp-Ile-Nva-Cys]-NH2] ({DOTA}-FCRQYFP[Hyp]I[Nva]C-NH2; disulfide 2-11)",7.00 to 7.40,10 to 100,
"CCCOC(=O)N[C@H]1CSSC[C@@H](C(N)=O)NC(=O)[C@H](CCC)NC(=O)[C@H]([C@@H](C)CC)NC(=O)[C@@H]2C[C@@H](O)CN2C(=O)[C@@H]2CCCN2C(=O)[C@H](Cc2ccccc2)NC(=O)[C@H](Cc2ccc(O)cc2)NC(=O)[C@H](CCCCNC(=O)CN2CCN(CC(=O)O)CCN(CC(=O)O)CCN(CC(=O)O)CC2)NC(=O)[C@H](CCCNC(N)=O)NC1=O [UPAR-267, Prpoc-[Cys-Cit-Lys(DOTA)-Tyr-Phe-Pro-Hyp-Ile-Nva-Cys]-NH2] (X2-C[Cit]K(DOTA)YFP[Hyp]I[Nva]C-NH2; disulfide 1-10)",7.00 to 7.40,10 to 100,
"CCCCOC(=O)N[C@H]1CSSC[C@@H](C(=O)N[C@@H](CC(=O)O)C(N)=O)NC(=O)[C@H](CCC)NC(=O)[C@H]([C@@H](C)CC)NC(=O)[C@@H]2C[C@@H](O)CN2C(=O)[C@@H]2C[C@H](F)CN2C(=O)[C@H](Cc2ccccc2)NC(=O)[C@H](Cc2ccc(O)cc2)NC(=O)[C@H](CCCCNC(=O)CN2CCN(CC(=O)O)CCN(CC(=O)O)CCN(CC(=O)O)CC2)NC(=O)[C@H]([C@@H](C)O)NC1=O [UPAR-141, Butoc-[Cys-Thr-Lys(DOTA)-Tyr-Phe-4Cfp-Hyp-Ile-Nva-Cys]-Asp-NH2] (Butoxycarbonyl-CTK(DOTA)YF[Pro(cis-4-F)][Hyp]I[Nva]CD-NH2; disulfide 1-10)",7.00 to 7.40,10 to 100,
"CCCCC(=O)N[C@H]1CSSC[C@@H](C(N)=O)NC(=O)[C@H](CCC)NC(=O)[C@H]([C@@H](C)CC)NC(=O)[C@@H]2C[C@@H](O)CN2C(=O)[C@@H]2CCCN2C(=O)[C@H](Cc2ccccc2)NC(=O)[C@H](Cc2ccc([N+](=O)[O-])cc2)NC(=O)[C@H](CCCCNC(=O)CN2CCN(CC(=O)O)CCN(CC(=O)O)CCN(CC(=O)O)CC2)NC(=O)[C@H](CCCNC(N)=O)NC1=O [UPAR-257, Pent-[Cys-Cit-Lys(DOTA)-Nif-Phe-Pro-Hyp-Ile-Nva-Cys]-NH2] (Pentanoyl-C[Cit]K(DOTA)[Phe(4-NO2)]FP[Hyp]I[Nva]C-NH2; disulfide 1-10)",≥ 8.00,< 1.58,
"CCCCC(=O)N[C@H]1CSSC[C@@H](C(N)=O)NC(=O)[C@H](CCC)NC(=O)[C@H]([C@@H](C)CC)NC(=O)[C@@H]2C[C@@H](O)CN2C(=O)[C@@H]2CCCN2C(=O)[C@H](Cc2ccccc2)NC(=O)[C@H](Cc2ccc(S(=O)(=O)O)cc2)NC(=O)[C@H](CCCCNC(=O)CN2CCN(CC(=O)O)CCN(CC(=O)O)CCN(CC(=O)O)CC2)NC(=O)[C@H](CCCNC(N)=O)NC1=O [UPAR-209, Pent-[Cys-Cit-Lys(DOTA)-Fso-Phe-Pro-Hyp-Ile-Nva-Cys]-NH2] (Pentanoyl-C[Cit]K(DOTA)[Phe(4-SO3H)]FP[Hyp]I[Nva]C-NH2; disulfide 1-10)",≥ 8.00,1.58 to 10,
"CCCCOC(=O)N[C@H]1CSSC[C@@H](C(N)=O)NC(=O)[C@H](CCC)NC(=O)[C@H]([C@@H](C)CC)NC(=O)[C@@H]2C[C@@H](O)CN2C(=O)[C@@H]2C[C@H](F)CN2C(=O)[C@H](Cc2ccccc2)NC(=O)[C@H](Cc2ccc(O)c(O)c2)NC(=O)[C@H](CCCNC(=O)CN2CCN(CC(=O)O)CCN(CC(=O)O)CCN(CC(=O)O)CC2)NC(=O)[C@H]([C@@H](C)O)NC1=O [UPAR-280, Butoc-[Cys-Thr-Orn(DOTA)-Dopa-Phe-4Cfp-Hyp-Ile-Nva-Cys]-NH2] (Butoxycarbonyl-CT[Orn](DOTA)[Dopa]F[Pro(cis-4-F)][Hyp]I[Nva]C-NH2; disulfide 1-10)",≥ 8.00,< 1.58,
